# Assay results: patent US20250127907A1, “PARP INHIBITORS” (Stablix, Inc., priority 2023, published 2025)
# Read-outs that look alike come from different tables or passages of the source.
# How the values were obtained:
# [1] = test system: Poly/Mono-ADP Ribose in U2OS cells; assay: PAR in cell western assay (parylation) in U2OS cells; format: cell-based; settings: U2OS cells, 6 hrs, 2 mM H2O2, read-out: Parylation (U2OS)
# In short: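 U2OS cells treated with compound for 6 h, then 2 mM H2O2 for 10 min to induce DNA damage. After methanol fixation, cells stained overnight at 4 °C with anti-mono/poly-ADP-ribose antibody and imaged by infrared in-cell western, normalized to CellTag 700; reported as % control inhibition.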
# PARP1 [2] = biological target: T1, PARP1 (Homo sapiens, UniProt P09874); assay: PARP1-enzyme assay (NAD/NADH-Glo biochemical assay); settings: recombinant PARP1, NAD+ consumption
# Protocol: The PARP enzyme catalyzes the transfer of ADP-Ribose from NAD+ onto PAR chains/histone substrates. The catalytic cycle is monitored indirectly with the NAD/NADH-Glo Assay kit from Promega. […] NAD+ consumed is determined by comparison to the no enzyme control.
# • Recombinant PARP1 • NAD+/NAHD-Glow assay Kit • Activated DNA, 10 μg/mL • NAD+(Nicotinamide Adenine Dinucleotide), 500 nM • Protein substrate for PARP1: Core Histone from chicken, 10 μg/mL
# The letter codes for the PARP1-enzyme assay include: A (<1 nM), B (>1-10 nM), C (>10-100 nM), D (>100-1000 nM), E (>1000 nM), and “-” is not tested. The letter codes for the PARP trapping assay, and parylation assay include: A (<10 nM), B (>10-100 nM), C (>100-1000 nM), […], E (>10000 nM), and “-” is not tested.
# Target sequence in this assay (P09874 whole entry, species assumed): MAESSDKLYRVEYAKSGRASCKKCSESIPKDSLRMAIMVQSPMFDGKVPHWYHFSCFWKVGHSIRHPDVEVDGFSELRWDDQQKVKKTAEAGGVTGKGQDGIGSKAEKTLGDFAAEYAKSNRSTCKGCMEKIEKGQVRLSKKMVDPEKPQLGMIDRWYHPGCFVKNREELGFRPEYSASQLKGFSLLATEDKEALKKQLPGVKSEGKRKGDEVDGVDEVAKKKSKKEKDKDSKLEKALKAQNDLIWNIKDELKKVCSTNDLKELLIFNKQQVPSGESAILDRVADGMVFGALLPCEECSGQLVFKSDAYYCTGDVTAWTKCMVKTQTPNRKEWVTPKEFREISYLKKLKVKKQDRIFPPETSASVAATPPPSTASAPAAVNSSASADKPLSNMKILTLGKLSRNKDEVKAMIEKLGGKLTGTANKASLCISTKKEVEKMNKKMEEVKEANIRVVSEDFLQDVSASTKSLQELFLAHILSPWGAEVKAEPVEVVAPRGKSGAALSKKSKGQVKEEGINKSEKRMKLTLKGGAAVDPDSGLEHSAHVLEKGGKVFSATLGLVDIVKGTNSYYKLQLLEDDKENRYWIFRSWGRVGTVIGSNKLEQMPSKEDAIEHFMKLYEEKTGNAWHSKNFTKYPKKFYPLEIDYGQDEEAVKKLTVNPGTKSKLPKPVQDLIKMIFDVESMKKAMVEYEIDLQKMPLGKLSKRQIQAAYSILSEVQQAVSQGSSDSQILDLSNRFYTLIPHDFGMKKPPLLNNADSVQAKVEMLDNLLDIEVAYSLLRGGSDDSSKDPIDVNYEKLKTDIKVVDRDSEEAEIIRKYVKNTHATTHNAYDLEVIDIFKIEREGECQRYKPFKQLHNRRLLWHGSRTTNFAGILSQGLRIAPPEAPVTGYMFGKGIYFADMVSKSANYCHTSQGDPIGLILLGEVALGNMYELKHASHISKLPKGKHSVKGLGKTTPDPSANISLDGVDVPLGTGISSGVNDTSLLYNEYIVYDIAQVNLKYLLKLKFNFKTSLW
# HCC1806 cells = assay: Cell proliferation assay (HCC1806); format: cell-based; settings: 7 days
# MDA-MB-436 cells = assay: Cell proliferation assay (MDA-MB-436); format: cell-based; settings: 7 days
# A2780 cells = assay: Cell proliferation assay (A2780); format: cell-based; settings: Homo sapiens, 168 h, 7 days
# PARP1 [3] = biological target: T1, PARP1; assay: PARP trapping assay in U2OS cells; format: cell-based; set-up: endogenous in cells; host or cells: U2OS; settings: U2OS cells, MMS, 4 hrs; read-out: PARP Trapping (U2OS)
# In short: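 U2OS cells co-treated with compounds and MMS for 4 h, then soluble proteins extracted with 0.5% Triton X-100, MeOH-fixed and immunostained for PARP1. Chromatin-bound PARP1 quantified as AF488 intensity per DAPI-segmented nucleus; potencies reported as letter-code bins.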
# Target sequence in this assay (P09874 whole entry): as the sequence (P09874 whole entry, species assumed) above
Structure (SMILES),IC50 ([1]; Homo sapiens) [nM],IC50 (PARP1 [2]) [nM],"IC50 (HCC1806 cells; Homo sapiens, 168 h) [nM]","IC50 (MDA-MB-436 cells; Homo sapiens, 168 h) [nM]",IC50 (A2780 cells) [nM],IC50 (PARP1 [3]) [nM],IC50 [1] [nM],IC50 (HCC1806 cells) [nM],IC50 (MDA-MB-436 cells) [nM]
CCc1cccc(-c2cnc(C(=O)NCCOCCNCC(=O)N3CCN(C(=O)c4cc(Cc5n[nH]c(=O)c6ccccc56)ccc4F)CC3)c(NC(=O)CNCc3cccc(C)c3)c2)c1 [Compound I-63],100 to 1000,< 1,100 to 1000,100 to 1000,10 to 100,100 to 1000,,,
Cc1sc(CN2CCCC2c2nnc3n2CCCCC3)nc1C12CC(C(=O)NCCOCCOCCNCC(=O)N3CCN(C(=O)c4cc(Cc5cccc6c(=O)[nH]ncc56)ccc4F)CC3)(C1)C2 (stereo not drawn) [Compound I-193],,< 1,,,,> 10000,100 to 1000,< 10,100 to 1000
Cc1sc(CN2CCCC2c2nnc3n2CCCCC3)nc1C12CC(C(=O)NCCOCCOCCOCCNCC(=O)N3CCN(C(=O)c4cc(Cc5n[nH]c(=O)c6ccccc56)ccc4F)CC3)(C1)C2 (stereo not drawn) [Compound I-194],100 to 1000,< 1,< 10,100 to 1000,,> 10000,,,
Cc1sc(CN2CCCC2c2nnc3n2CCCCC3)nc1C12CC(C(=O)NCCOCCOCCOCCOCCNCC(=O)N3CCN(C(=O)c4cc(Cc5n[nH]c(=O)c6ccccc56)ccc4F)CC3)(C1)C2 (stereo not drawn) [Compound I-195],10 to 100,< 1,< 10,100 to 1000,,1000 to 10000,,,
CCc1cccc(-c2cnc(C(=O)N3CCC(CN4CCN(CC(=O)N5CCN(C(=O)c6cc(Cc7n[nH]c(=O)c8ccccc78)ccc6F)CC5)CC4)CC3)c(N)c2)c1 [Compound I-366],100 to 1000,< 1,100 to 1000,100 to 1000,100 to 1000,100 to 1000,,,
CCc1cccc(-c2cnc(C(=O)N3CCC(CN4CCN(CC(=O)N5CCN(C(=O)c6cc(Cc7n[nH]c(=O)c8ccccc78)ccc6F)CC5)CC4)CC3)c(NC(C)=O)c2)c1 [Compound I-367],100 to 1000,< 1,100 to 1000,100 to 1000,100 to 1000,100 to 1000,,,

# Other lines, results leading:
IC50 ([1]; Homo sapiens) [nM],IC50 (PARP1 [2]) [nM],"IC50 (HCC1806 cells; Homo sapiens, 168 h) [nM]","IC50 (MDA-MB-436 cells; Homo sapiens, 168 h) [nM]",IC50 (A2780 cells) [nM],IC50 (PARP1 [3]) [nM],IC50 [1] [nM],IC50 (HCC1806 cells) [nM],IC50 (MDA-MB-436 cells) [nM],Structure (SMILES)
100 to 1000,< 1,100 to 1000,10 to 100,1000 to 10000,100 to 1000,,,,CCOc1cc(OC)ccc1CNCC(=O)N1CCCC(c2cccc(C(=O)N[C@@H](C(=O)N3CCN(CC4CCN(CC(=O)N5CCN(C(=O)c6cc(Cc7n[nH]c(=O)c8ccccc78)ccc6F)CC5)CC4)CC3)C3CCCCC3)c2)C1 (stereo partly drawn) [Compound I-28]
100 to 1000,< 1,< 10,100 to 1000,,10 to 100,,,,CCOc1cc(OC)ccc1CNCC(=O)N1CCC[C@H](c2cccc(C(=O)N[C@@H](C(=O)N3CCN(CC4CCN(CC(=O)N5CCN(C(=O)c6cc(Cc7n[nH]c(=O)c8ccccc78)ccc6F)CC5)CC4)CC3)C3CCCCC3)c2)C1 [Compound I-167]
100 to 1000,< 1,< 10,10 to 100,,10 to 100,,,,CCOc1cc(OC)ccc1CNCC(=O)N1CCCC(c2cccc(C(=O)N[C@@H](C(=O)N3CCC(OC4CCN(CC(=O)N5CCN(C(=O)c6cc(Cc7n[nH]c(=O)c8ccccc78)ccc6F)CC5)CC4)CC3)C3CCCCC3)c2)C1 (stereo partly drawn) [Compound I-173]
10 to 100,< 1,< 10,10 to 100,,100 to 1000,,,,CCc1cccc(-c2cnc(C(=O)N3CCN(CC4CCN(CC(=O)N5CCN(C(=O)c6cc(Cc7n[nH]c(=O)c8ccccc78)ccc6F)CC5)CC4)CC3)c(NC(=O)CNCc3cc(C)no3)c2)c1 [Compound I-233]
10 to 100,< 1,100 to 1000,< 10,10 to 100,100 to 1000,,,,O=C(NC(C(=O)N1CCC(OC2CCN(CC(=O)N3CCN(C(=O)c4cc(Cc5n[nH]c(=O)c6ccccc56)ccc4F)CC3)CC2)CC1)C1CCCCC1)c1cccc(C2CCCN(C(=O)CNCc3ccc(F)cc3F)C2)c1 (stereo not drawn) [Compound I-369]
